The test system of assay [1] is M12 melanoma cells. Put plainly: M12 melanoma cell growth inhibition in nude mice. It counts as in vivo, Balb/c nude mice. Conditions: 10 mg/kg daily oral, day 25 to day 55; FIG. 2; * p<0.05. As for the experimental part: This study was performed in groups of 10 Balb/c nude mice.
On the first day of the experiment (day 0), 2×10^6 M12 melanoma cells were transplanted into mice in the test group. When the tumor volume reached 100 mm^3, the test Compound 1 was administered orally in doses of 10 mg/kg daily to the mice. This treatment was carried out 30 times from day 25 to day 55. The tumor diameter was measured using calipers everyday after transplantation of tumor cells. The tumor volume was calculated according to the following formula.
Tumor volume (mm^3)=(long diameter)×(short diameter)^2 ×1/2

For assay [2], the system named is human peripheral blood acute lymphocytic leukemia cells (Molt-4). Put plainly: ATL-infected cell growth inhibition test: ATLV-noninfected cells. In kind it is cell-based. Conditions: for Number of ATLV-noninfected cells: 4 days, control 13.9. How it is done: Human peripheral blood acute lymphocytic leukemia cells (Molt-4) [J. Minowada, et al., J. Natl. Cancer Inst., 49, 891-895 (1972): ATCC CRL1582] were used to prepare a suspension of 1×10^5 cells/ml in RPMI-1640 medium (Gibco) supplemented 10% fetal calf serum (FCS, Gibco) for use as ATL virus-noninfected cells.
Compound 1 was dissolved in hydrochloric acid, diluted with the same medium as above, neutralized with 2N NaOH and adjusted to concentrations of 1 μg/ml, 10 μg/ml and 30 μg/ml.
The cells prepared in (a) and (b) above were respectively placed in wells of a 24-well culture plate (Nunc), followed by addition of the test compound prepared in (c) (final concentration: 1 μg/ml, 10 μg/ml or 30 μg/ml), and cultured at 37° C. in a 5% carbon dioxide incubator for 4 days. As a control, the medium without addition of the test compound was used. After completion of incubation, the cell suspension in each well was taken for determination of viable cells.

In assay [3] the test system is W/BF1 :(NZW×BXSB)F1 mice with spontaneous autoimmune disease. The assay can be described thus: Life-prolonging effect in autoimmune disease mice. It counts as in vivo. An excerpt: W/BF1 :(NZW×BXSB)F1 mice are mice with spontaneous autoimmune disease. They are known as an animal model of lupus nephritis accompanied, with high frequency, by hypertension and myocardial infarction [Hang, L. M., et al., J. Exp. Med., 154, 216-221 (1981)]. They develop anti-platelet antibodies with increasing age, showing marked thrombocytopenia, and are used as an animal model of idiopathic thrombocytopenic purpura (ITP) as well [Oyaizu, N., et al., J. Exp. Med. 167, 2017-2077 (1988)]. It has been reported that more than 90% of the model animals die of myocardial infarction or renal failure within 8 months of birth [Ikehara, S., Metabolism and Disease, (Suppl) 26, 169-176 (1989)].
(§1) W/BF1 :(NZW×BXSB)F1 mice were used at the age of 14 weeks (purchased from Kiwa Experimental Animal). Groups of 10 mice were used in each experiment.
The mice in respective groups were given a diet (Oriental Yeast), which is usually given to this kind of mice, and water.
(§2) Compound 1 (Lot No. 9D87M) was used as suspended in a 0.5% solution of carborymethylcellulose (CMC, Cellogan). Compound 1 was administered to mice by oral garage in doses of 100 and 300 mg/kg body weight/day for 6 weeks from 14 weeks of age to 20 weeks of age according to the 5-day administration and 2-day cessation schedule. As a control, an untreated group was provided. […] Statistic analysis was performed by the generalized Wilcoxon test with respect to the untreated group.
In the figure, the ordinate represents the survival rate (%) and the abscissa represents the age in weeks (14 weeks to 20 weeks).

The test system of assay [4] is anti-platelet antibodies. Put plainly: Assay of anti-platelet antibodies in autoimmune disease mice. It counts as in vivo, W/BF1 mice. Conditions: for Anti-platelet antibodies, % positive, Mean ± SE / Anti-platelet antibodies, % positive, individual mice: 20 weeks of age; for Anti-platelet antibodies, % positive, Mean ± SE: untreated 19.6 ± 5.5. How it is done: as §1, §2
(3) Oyaizu et al. have reported that in W/BF1 mice, thrombocytopenia is associated with the appearance of anti-platelet antibodies.
The platelets collected from Balb/c mice and the plasma collected from W/BF1 mice treated up to the age of 20 weeks were incubated together at room temperature for 30 minutes. The mixture was washed twice and allowed to react with FITC-labeled anti-mouse IgG (Tago, Code No. 6250), and after staining, anti-platelet antibodies were assayed with an FACS analyzer (EPICS-Profile II, Coulter). The negative control was set so that the plasma from Balb/c mice was 98% negative. The positive rate of each sample was determined.

The test system of assay [5] is MRL/Mp-1 pr/1 pr mice. The assay can be described thus: Therapeutic effect on autoimmune disease in MRL mice. It counts as in vivo. The settings on record: 300 mg/kg oral. The text has this: Groups of five female MRL/Mp-1 pr/1 pr mice (purchased at 7 weeks of age from Charles River Japan, Inc.) were used at the age of 19 weeks.
Mice of the above strain are known to spontaneously develop autoimmune diseases such as human systemic lupus erythematosus (SLE)-like immune complex glomerulonephritis, lymphoma, vasculitis and polyarthritis (Theofilopolos, A. and Dixon, F. J., Adv. Immunology, 37, 269 (1985); Murphy, E. D., Roths, J. B., Autoimmunity and lymphoproliferation, Elsevier North Holland, N.Y., 207-221 (1978); Taniguchi, Y., Gendai Iryo, 21, 131 (1989); Abe, C.).
Mice in both the Compound 1-treated group and the control group (untreated group) were given a mouse diet (Oriental Yeast) and water.
Compound 1 was used as suspended in 0.5% carboxymethytcellulose (CMC, Dai-ichi Kogyo Seiyaku Co., Ltd.) solution.
Compound 1 was administered by oral garage in a dose of 300 mg/kg body weight daily from the age of 19 weeks to the age of 25 weeks according to the 5-day administration and 2-day cessation schedule (Compound 1-treated group).
Mice in the respective groups were examined for changes in urinary protein, lymphoma diameter, vasculitis of the auricle, and loss of hair.

The structures appear in SMILES notation. Where “and” joins values, the source holds several entries; their conditions need not be identical. Equal entries are not always repeated. Entries after “also recorded” stand apart in the source; their conditions may differ.

For the molecule `COc1ccc(C(=O)N2CCN(c3ccc4c(c3)CCC(=O)N4)CC2)cc1OC` [Compound 1, 6-[4-(3,4-Dimethoxybenzoyl)-1-piperazinyl]-3,4-dihydrocarbostyril], in assay [1], the “Growth of M12 melanoma cells (tumor volume)” value is given as “significantly inhibits growth of M12 melanoma cells”. The “Number of ATLV-noninfected cells” value in assay [2] (1 μg/ml) is reported as 13.9 ×10^5; in assay [2] (10 μg/ml), 12.2 ×10^5; in assay [2] (30 μg/ml) it was 12.8 ×10^5. For the same molecule, the “Effect on ATLV-noninfected cells (in words)” value in assay [2] (1-30 μg/ml) is “does not affect ATLV-noninfected cells”. The “Deaths till 20 weeks of age” value in assay [3] (100 mg/kg/day oral, untreated: two, one and three dead at 17, 18, 19 weeks) is listed as “no death occurred”. Also, the “Animals found dead at 18 weeks of age” value in assay [3] (300 mg/kg/day oral, groups of 10) is reported as “two”. Moreover, the “Life-prolonging effect (in words)” value in assay [3] (100 and 300 mg/kg/day oral) is “significant life-prolonging effect”. For the same molecule, the “Anti-platelet antibodies, % positive, Mean ± SE” value in assay [4] (100 mg/kg/day) was 13.3 ± 2.7% and 13.2±2.7%; in assay [4] (300 mg/kg/day), 10.7 ± 2.2%. For the same molecule, the “Anti-platelet antibodies, % positive, individual mice” value in assay [4] (100 mg/kg, mouse Nos. 1-10) is 3.7% and 13.5% and 3.1% and 17.3% and 21.5% and 16.8% and 18.2% and 7.8% and 8.5% and 27.1%; in assay [4] (300 mg/kg, mouse Nos. 1-4, 6-9), 2.3% and 11.4% and 14.1% and 6.0% and 16.4% and 12.1% and 4.1% and 19.5%. In assay [4] (100 and 300 mg/kg/day), the “Inhibition of anti-platelet antibodies (in words)” value is recorded as “dose-dependent inhibition of anti-platelet antibodies”. For the same molecule, the Urinary protein entry in assay [5] (19 to 25 weeks of age, vs control) is reported as “tendency of inhibition of the increase in urinary protein”. Further, the Loss of hair result in assay [5] (FIG. 8, vs control) was “improvements in vasculitis and loss of hair”. For the same molecule, the Vasculitis entry in assay [5] (FIG. 8, vs control) is listed as “improvements in vasculitis”. In addition, the “Lymphoma size, diameter” value in assay [5] (control 9.0±0.8 mm) is given as 7.8±1.3 mm. Moreover, in assay [5] (vs control), the “Lymphoma (in words)” value is recorded as “enlargement of lymphoma was slightly inhibited; also recorded: reduction in lymphoma”.

These data come from US5672603A, “Apoptosis regulating composition” (Otsuka Pharmaceutical Co., Ltd., priority 1991, dated 1997).
